The numbers were not newly measured in patent publication US6436414B1, “Active ingredient combinations or adducts of biotin and/or biotin derivatives and cyclodextrins and use of such active ingredient combinations in cosmetic preparations” (Beiersdorf AG, priority 1999, dated 2002), which cites them from elsewhere.

The conditions of the data set: according to the literature.

`O=C(O)CCCC[C@@H]1SC[C@@H]2NC(=O)N[C@@H]21` [biotin, D-cis-hexahydro-2-oxothieno[3,4-d]imidazole-4-valeric acid]: the “solubility limit of biotin in aqueous solution” value was “about 0.04%”.
